Nine compounds from PubChem BioAssay (NCI) can be followed below.

Each structure is given as a SMILES string.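 96-well plates; 48 h exposure; 5 concentrations. Endpoints by linear interpolation between flanking doses. Not reached: highest tested concentration assigned. TGI: total growth inhibition.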

For the first test, the system named is SW-620 colon. Kind of test: inhibition of tumour cell growth, NCI panel, 48 h.
Regarding `COC(=O)C1C(C(=O)OC)N(Cc2ccccc2)C(=O)N1Cc1ccccc1` (stereo unspecified), the TGI is above 100 µM.

Take `CCOC(=O)c1csc(NC(=O)CCN(CC)CC)n1`: the TGI came out at 92.8 µM.

As for `CCN1c2ccccc2-n2c(C)nnc2-c2c1n[nH]c2-c1ccccc1`, the TGI was above 100 µM.

Compound `C[C@]12CC[C@@H]3c4ccc(O)cc4CC[C@H]3[C@@H]1C/C(=C\c1ccncc1)C2=O` yielded a TGI above 100 µM.

Take `C=CCN1C(=O)/C(=C/c2ccccc2)N=C1SC1OC(COC(=O)c2ccccc2)C(OC(=O)c2ccccc2)C1OC(=O)c1ccccc1` (stereo unspecified): the TGI is above 100 µM.

`C#CCCCCC#Cc1ccccc1C(=O)OC` showed a TGI of 46.1 µM.

For the compound `C/C(CCOC1CCCCO1)=C(\C)[Si](C)(C)C` (stereo unspecified), the TGI was above 100 µM.

In turn, `COCCOCOc1ccc(OCc2ccccc2)cc1` showed a TGI above 100 µM.

For the compound `C=C(C(=O)C(=O)Oc1ccc(Cl)cc1)C(=O)c1ccc(C)cc1`, the TGI amounted to 36.4 µM.

A further test relates to HL-60(TB) leukemia. Kind of test: inhibition of tumour cell growth, NCI panel, 48 h.
Compound `COC(=O)C1C(C(=O)OC)N(Cc2ccccc2)C(=O)N1Cc1ccccc1` (stereo unspecified) returned a TGI above 100 µM.

The compound `CCOC(=O)c1csc(NC(=O)CCN(CC)CC)n1` came in with a TGI above 100 µM.

Turning to `CCN1c2ccccc2-n2c(C)nnc2-c2c1n[nH]c2-c1ccccc1`, the TGI came to 28.5 µM.

Regarding `C[C@]12CC[C@@H]3c4ccc(O)cc4CC[C@H]3[C@@H]1C/C(=C\c1ccncc1)C2=O`, the TGI stood at 68 µM.

`C=CCN1C(=O)/C(=C/c2ccccc2)N=C1SC1OC(COC(=O)c2ccccc2)C(OC(=O)c2ccccc2)C1OC(=O)c1ccccc1` (stereo unspecified): the TGI is above 100 µM.

In turn, `C#CCCCCC#Cc1ccccc1C(=O)OC` registered a TGI of 29.4 µM.

`C/C(CCOC1CCCCO1)=C(\C)[Si](C)(C)C` (stereo unspecified) displayed a TGI above 100 µM.

In turn, `COCCOCOc1ccc(OCc2ccccc2)cc1` came in with a TGI above 100 µM.

The compound `C=C(C(=O)C(=O)Oc1ccc(Cl)cc1)C(=O)c1ccc(C)cc1` gave a TGI above 100 µM.

The test system of the next test is SK-MEL-2 melanoma. Kind of test: inhibition of tumour cell growth, NCI panel, 48 h.
Turning to `COC(=O)C1C(C(=O)OC)N(Cc2ccccc2)C(=O)N1Cc1ccccc1` (stereo unspecified), the TGI was above 100 µM.

The compound `CCOC(=O)c1csc(NC(=O)CCN(CC)CC)n1` returned a TGI above 100 µM.

`CCN1c2ccccc2-n2c(C)nnc2-c2c1n[nH]c2-c1ccccc1` registered a TGI of 45.6 µM.

`C[C@]12CC[C@@H]3c4ccc(O)cc4CC[C@H]3[C@@H]1C/C(=C\c1ccncc1)C2=O` had a TGI of 48.7 µM.

Compound `C=CCN1C(=O)/C(=C/c2ccccc2)N=C1SC1OC(COC(=O)c2ccccc2)C(OC(=O)c2ccccc2)C1OC(=O)c1ccccc1` (stereo unspecified) had a TGI above 100 µM.

As for `C#CCCCCC#Cc1ccccc1C(=O)OC`, the TGI is above 100 µM.

`C/C(CCOC1CCCCO1)=C(\C)[Si](C)(C)C` (stereo unspecified): the TGI was above 100 µM.

`COCCOCOc1ccc(OCc2ccccc2)cc1` gave a TGI above 100 µM.

For `C=C(C(=O)C(=O)Oc1ccc(Cl)cc1)C(=O)c1ccc(C)cc1`, the TGI was above 100 µM.

The next test relates to ACHN renal. Kind of test: inhibition of tumour cell growth, NCI panel, 48 h.
With `COC(=O)C1C(C(=O)OC)N(Cc2ccccc2)C(=O)N1Cc1ccccc1` (stereo unspecified), the TGI is above 100 µM.

`CCOC(=O)c1csc(NC(=O)CCN(CC)CC)n1`: the TGI was above 100 µM.

In turn, `CCN1c2ccccc2-n2c(C)nnc2-c2c1n[nH]c2-c1ccccc1` came in with a TGI above 100 µM.

`C[C@]12CC[C@@H]3c4ccc(O)cc4CC[C@H]3[C@@H]1C/C(=C\c1ccncc1)C2=O` gave a TGI above 100 µM.

Turning to `C=CCN1C(=O)/C(=C/c2ccccc2)N=C1SC1OC(COC(=O)c2ccccc2)C(OC(=O)c2ccccc2)C1OC(=O)c1ccccc1` (stereo unspecified), the TGI is above 100 µM.

For `C#CCCCCC#Cc1ccccc1C(=O)OC`, the TGI is above 100 µM.

In turn, `C/C(CCOC1CCCCO1)=C(\C)[Si](C)(C)C` (stereo unspecified) had a TGI above 100 µM.

Take `C=C(C(=O)C(=O)Oc1ccc(Cl)cc1)C(=O)c1ccc(C)cc1`: the TGI was above 100 µM.

Another test has as its system NCI/ADR-RES ovarian. Kind of test: inhibition of tumour cell growth, NCI panel, 48 h.
`COC(=O)C1C(C(=O)OC)N(Cc2ccccc2)C(=O)N1Cc1ccccc1` (stereo unspecified) gave a TGI above 100 µM.

Take `CCOC(=O)c1csc(NC(=O)CCN(CC)CC)n1`: the TGI was above 100 µM.

Consider `CCN1c2ccccc2-n2c(C)nnc2-c2c1n[nH]c2-c1ccccc1`, for which the TGI was found to be 73.1 µM.

In the case of `C[C@]12CC[C@@H]3c4ccc(O)cc4CC[C@H]3[C@@H]1C/C(=C\c1ccncc1)C2=O`, the TGI came out at 60.1 µM.

Compound `C=CCN1C(=O)/C(=C/c2ccccc2)N=C1SC1OC(COC(=O)c2ccccc2)C(OC(=O)c2ccccc2)C1OC(=O)c1ccccc1` (stereo unspecified) gave a TGI above 100 µM.

`COCCOCOc1ccc(OCc2ccccc2)cc1` returned a TGI above 100 µM.

For a further test, the system named is HOP-92 NSCLC. Kind of test: inhibition of tumour cell growth, NCI panel, 48 h.
Compound `COC(=O)C1C(C(=O)OC)N(Cc2ccccc2)C(=O)N1Cc1ccccc1` (stereo unspecified) showed a TGI above 100 µM.

Compound `CCOC(=O)c1csc(NC(=O)CCN(CC)CC)n1` yielded a TGI of 69.3 µM.

`CCN1c2ccccc2-n2c(C)nnc2-c2c1n[nH]c2-c1ccccc1` displayed a TGI above 100 µM.

Turning to `C[C@]12CC[C@@H]3c4ccc(O)cc4CC[C@H]3[C@@H]1C/C(=C\c1ccncc1)C2=O`, the TGI was above 100 µM.

Compound `C=CCN1C(=O)/C(=C/c2ccccc2)N=C1SC1OC(COC(=O)c2ccccc2)C(OC(=O)c2ccccc2)C1OC(=O)c1ccccc1` (stereo unspecified) returned a TGI above 100 µM.

In turn, `C#CCCCCC#Cc1ccccc1C(=O)OC` had a TGI of 86 µM.

On to `C/C(CCOC1CCCCO1)=C(\C)[Si](C)(C)C` (stereo unspecified), for which the TGI is above 100 µM.

For `COCCOCOc1ccc(OCc2ccccc2)cc1`, the TGI is above 100 µM.

Compound `C=C(C(=O)C(=O)Oc1ccc(Cl)cc1)C(=O)c1ccc(C)cc1` came in with a TGI above 100 µM.

Another test concerns M14 melanoma. Kind of test: inhibition of tumour cell growth, NCI panel, 48 h.
Turning to `COC(=O)C1C(C(=O)OC)N(Cc2ccccc2)C(=O)N1Cc1ccccc1` (stereo unspecified), the TGI is above 100 µM.

In the case of `CCOC(=O)c1csc(NC(=O)CCN(CC)CC)n1`, the TGI was determined as 64.1 µM.

Turning to `CCN1c2ccccc2-n2c(C)nnc2-c2c1n[nH]c2-c1ccccc1`, the TGI is above 100 µM.

Compound `C[C@]12CC[C@@H]3c4ccc(O)cc4CC[C@H]3[C@@H]1C/C(=C\c1ccncc1)C2=O` yielded a TGI above 100 µM.

Compound `C#CCCCCC#Cc1ccccc1C(=O)OC` showed a TGI above 100 µM.

As for `C/C(CCOC1CCCCO1)=C(\C)[Si](C)(C)C` (stereo unspecified), the TGI was above 100 µM.

As to `C=C(C(=O)C(=O)Oc1ccc(Cl)cc1)C(=O)c1ccc(C)cc1`, the TGI is 81.8 µM.

For another test, the system named is A549 NSCLC. Kind of test: inhibition of tumour cell growth, NCI panel, 48 h.
As for `COC(=O)C1C(C(=O)OC)N(Cc2ccccc2)C(=O)N1Cc1ccccc1` (stereo unspecified), the TGI is above 100 µM.

With `CCOC(=O)c1csc(NC(=O)CCN(CC)CC)n1`, the TGI was above 100 µM.

In turn, `CCN1c2ccccc2-n2c(C)nnc2-c2c1n[nH]c2-c1ccccc1` registered a TGI above 100 µM.

As to `C[C@]12CC[C@@H]3c4ccc(O)cc4CC[C@H]3[C@@H]1C/C(=C\c1ccncc1)C2=O`, the TGI is above 100 µM.

The compound `C#CCCCCC#Cc1ccccc1C(=O)OC` gave a TGI above 100 µM.

Compound `C/C(CCOC1CCCCO1)=C(\C)[Si](C)(C)C` (stereo unspecified) displayed a TGI above 100 µM.

Take `COCCOCOc1ccc(OCc2ccccc2)cc1`: the TGI was above 100 µM.

For `C=C(C(=O)C(=O)Oc1ccc(Cl)cc1)C(=O)c1ccc(C)cc1`, the TGI is above 100 µM.

In another test the test system is IGROV1 ovarian. Kind of test: inhibition of tumour cell growth, NCI panel, 48 h.
For `COC(=O)C1C(C(=O)OC)N(Cc2ccccc2)C(=O)N1Cc1ccccc1` (stereo unspecified), the TGI was above 100 µM.

Turning to `CCOC(=O)c1csc(NC(=O)CCN(CC)CC)n1`, the TGI is above 100 µM.

`CCN1c2ccccc2-n2c(C)nnc2-c2c1n[nH]c2-c1ccccc1` gave a TGI above 100 µM.

With `C[C@]12CC[C@@H]3c4ccc(O)cc4CC[C@H]3[C@@H]1C/C(=C\c1ccncc1)C2=O`, the TGI was determined as 68.3 µM.

`C=CCN1C(=O)/C(=C/c2ccccc2)N=C1SC1OC(COC(=O)c2ccccc2)C(OC(=O)c2ccccc2)C1OC(=O)c1ccccc1` (stereo unspecified) yielded a TGI above 100 µM.

For `C#CCCCCC#Cc1ccccc1C(=O)OC`, the TGI is above 100 µM.

`C/C(CCOC1CCCCO1)=C(\C)[Si](C)(C)C` (stereo unspecified): the TGI was above 100 µM.

Compound `COCCOCOc1ccc(OCc2ccccc2)cc1` registered a TGI above 100 µM.

The compound `C=C(C(=O)C(=O)Oc1ccc(Cl)cc1)C(=O)c1ccc(C)cc1` yielded a TGI above 100 µM.

A further test relates to OVCAR-8 ovarian. Kind of test: inhibition of tumour cell growth, NCI panel, 48 h.
In the case of `COC(=O)C1C(C(=O)OC)N(Cc2ccccc2)C(=O)N1Cc1ccccc1` (stereo unspecified), the TGI is above 100 µM.

As to `CCOC(=O)c1csc(NC(=O)CCN(CC)CC)n1`, the TGI worked out at 95.9 µM.

As for `CCN1c2ccccc2-n2c(C)nnc2-c2c1n[nH]c2-c1ccccc1`, the TGI was above 100 µM.

Consider `C[C@]12CC[C@@H]3c4ccc(O)cc4CC[C@H]3[C@@H]1C/C(=C\c1ccncc1)C2=O`, for which the TGI was found to be 56.3 µM.

Compound `C=CCN1C(=O)/C(=C/c2ccccc2)N=C1SC1OC(COC(=O)c2ccccc2)C(OC(=O)c2ccccc2)C1OC(=O)c1ccccc1` (stereo unspecified) showed a TGI above 100 µM.

For the compound `C#CCCCCC#Cc1ccccc1C(=O)OC`, the TGI was 31.5 µM.

The compound `C/C(CCOC1CCCCO1)=C(\C)[Si](C)(C)C` (stereo unspecified) gave a TGI above 100 µM.
